Data published in patent US20250177352A1, “COMBINATION TREATMENT FOR CANCER” (LAEKNA LIMITED, priority 2022, published 2025).

Tests used:
[1] = system: MBT-2 cells; test: Proliferation assay of mouse cancer cell lines (CellTiter-Lumi, ATP); type: cell-based; settings: afuresertib 0.0001-10 μM, 3 days, FIG. 1
Procedure: The cell lines were obtained from Cobioer Biosciences Co. Ltd., Nanjing, China. 1,000 to 2,000 cells were seeded into 96-well plate, and induced with various concentrations of afuresertib (0.0001-10 μM) for 3 days at 37° C. with 5% CO2. The number of viable cells in culture was determined based on quantitation of the amount of ATP following the manufacturer's instructions (CellTiter-Lumi Kit, Beyotime).

[2] = system: Akt (protein kinase B); settings: reversible, ATP-competitive; stated as known; cited from earlier work
[3] = system: mTNBC; settings: historical control for mTNBC patients with PD-L1 negative status; cited from earlier work
[4] = system: solid tumors; settings: literature values of approved antibodies; cited from earlier work

| Compound | ORR, Phase I studies in solid tumors [4] [%] | further results |
| --- | --- | --- |
| Cn1ncc(Cl)c1-c1cc(C(=O)N[C@H](CN)Cc2cccc(F)c2)sc1Cl [Afuresertib, N-{(1S)-2-amino-1-[(3-fluorophenyl)methyl]ethyl}-5-chloro-4-(4-chloro-1-methyl-1H-pyrazol-5-yl)-2-thiophenecarboxamide] |  | response of cell proliferation (cell viability) [1]: favorable response profile; pan-AKT kinase inhibitor potency [2]: low-nanomolar |
| CC(=O)O[C@H]1C(=O)[C@@]2(C)[C@H]([C@H](OC(=O)c3ccccc3)[C@]3(O)C[C@H](OC(=O)[C@H](O)[C@@H](NC(=O)c4ccccc4)c4ccccc4)C(C)=C1C3(C)C)[C@]1(OC(C)=O)CO[C@@H]1C[C@@H]2O [paclitaxel, [(1S,2S,3R,4S,7R,9S,10S,12R,15S)-4,12-diacetyloxy-15-[(2R,3S)-3-benzamido-2-hydroxy-3-phenylpropanoyl]oxy-1,9-dihydroxy-10,14,17,17-tetramethyl-11-oxo-6-oxatetracyclo[11.3.1.0^3,10.0^4-7]heptadec-13-en-2-yl]benzoate] |  | ORR, paclitaxel monotherapy, LOTUS Study [3]: 32% |
| Avelumab: anti-PD-L1 antibody (Merck Serono and Pfizer) | 9 |  |
| Pembrolizumab: listed among other approved anti-PD-L1 antibodies from Phase I studies | 5.3 |  |
| Atezolizumab: anti-PD-L1 antibody (Genentech/Roche) | 10 |  |
